Source: US12122779B2, “Pyrrolo-pyridazine derivatives as muscarinic M1 receptor positive allosteric modulators” (SUVEN LIFE SCIENCES LIMITED, priority 2018, dated 2024)

How the values were obtained:
[1] = biological target: T1, recombinant human Muscarinic M1 receptor (Homo sapiens, UniProt P11229); assay: Allosteric potency EC50 for muscarinic M1 receptor, CHO pCRE-Luc reporter cell-based assay with EC20 of acetylcholine; details: CHO cells, luciferase activity, in presence of EC20 of acetylcholine, 4 hours
T1 sequence (P11229 1-460): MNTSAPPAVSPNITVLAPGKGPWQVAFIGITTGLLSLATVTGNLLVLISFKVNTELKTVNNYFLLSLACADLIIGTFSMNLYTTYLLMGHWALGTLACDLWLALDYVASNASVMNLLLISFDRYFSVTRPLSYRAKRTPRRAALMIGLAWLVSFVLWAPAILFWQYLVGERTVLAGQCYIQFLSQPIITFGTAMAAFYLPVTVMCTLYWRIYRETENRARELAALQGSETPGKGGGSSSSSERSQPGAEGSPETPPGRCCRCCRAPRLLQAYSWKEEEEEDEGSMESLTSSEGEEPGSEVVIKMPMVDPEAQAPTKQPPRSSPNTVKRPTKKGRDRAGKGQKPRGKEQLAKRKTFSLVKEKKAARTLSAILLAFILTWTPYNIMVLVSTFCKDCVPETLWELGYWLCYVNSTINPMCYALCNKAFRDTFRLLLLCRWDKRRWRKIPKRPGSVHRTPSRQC
Method: Determination of Allosteric Potency EC50 Values for Muscarinic M1 Receptor
A stable CHO cell line expressing recombinant human Muscarinic M1 receptor and pCRE-Luc reporter system was used for cell-based assay. The assay offers a non-radioactive based approach to determine binding of a compound to GPCRs. In this specific assay, the level of intracellular cyclic AMP which is modulated by activation or inhibition of the receptor is measured. The recombinant cells harbor luciferase reporter gene under the control of cyclic AMP response element.
The above cells were grown in 96 well clear bottom white plates in Hams F12 medium containing 10% fetal bovine serum (FBS). Prior to the addition of compounds or standard agonist, cells were serum starved overnight. Increasing concentrations of test compounds were added along with EC20 of acetylcholine in OptiMEM medium to the cells. The incubation was continued at 37° C. in CO2 incubator for 4 hours. Medium was removed and cells were washed with phosphate buffered saline. The cells were lysed and luciferase activity was measured in a Luminometer. Luminescence units were plotted against the compound concentrations using Graphpad software.

[2] = Rodent brain penetration study; format: in vivo, Male Wistar rats; details: male, Wistar, brain and plasma, po; rat, 3 mg/kg p.o., brain-plasma ratio; read-out: Single dose Rat Brain Penetration (Cb/Cp) at 3 mg/kg, p.o.
Method: Rodent Brain Penetration Study
Male Wistar rats (260±40 grams) were used as experimental animals. Three animals were housed in each cage. Animals were given water and food ad libitum throughout the experiment and maintained on a 12 h light/dark cycle.
Brain penetration was determined in discrete manner in rats. One day prior to dosing day, male Wistar rats were acclimatized and randomly grouped according to their weight. At each time point (0.50, 1 and 2 h) n=3 animals were used.
The test compounds were suitably preformulated and administered orally at (free base equivalent) 3 mg/kg. Blood samples were removed via cardiac puncture by using isoflurane anesthesia. The animals were sacrificed to collect brain tissue. Plasma was separated and brain samples were homogenized and stored frozen at −20° C. until analysis. The concentrations of the test compounds in plasma and brain were determined using LC-MS/MS method.
The test compounds were quantified in plasma and brain homogenate by qualified LC-MS/MS method using suitable extraction technique. The test compounds were quantified in the calibration range of 1-500 ng/mL in plasma and brain homogenate. Study samples were analyzed using calibration samples in the batch and quality control samples spread across the batch. Extent of brain-plasma ratio (Cb/Cp) was calculated.

[3] = Rodent pharmacokinetic study; format: in vivo, Male Wistar rats; details: male, Wistar, plasma, rat; for bioavailability: oral 3 mg/kg vs intravenous 1 mg/kg, read-out: F (%) Bioavailability
Method: Rodent Pharmacokinetic Study
Male Wistar rats (260±50 grams) were used as experimental animals. Animals were housed individually in polypropylene cage. Two days prior to study, male Wistar rats were anesthetized with isoflurane for surgical placement of jugular vein catheter. Rats were randomly divided for oral (3 mg/kg) and intravenous (1 mg/kg) dosing (n=3/group) and fasted overnight before oral dosing (p.o.). However, rats allocated to intravenous dosing food and water was provided ad libitum.
At pre-determined point, blood was collected through jugular vein and replenished with an equivalent volume of normal saline. Collected blood was transferred into a labeled eppendorf tube containing 10 μL of heparin as an anticoagulant. Typically blood samples were collected at following time points: 0.08, 0.25, 0.5, 1, 2, 4, 6, 8, and 24 h post dose. Blood was centrifuged at 4000 rpm for 10 minutes. Plasma was separated and stored frozen at −80° C. until analysis. The concentrations of the test compounds were quantified in plasma by qualified LC-MS/MS method using suitable extraction technique. The test compounds were quantified in the calibration range around 1-1000 ng/mL in plasma. Study samples were analyzed using calibration samples in the batch and quality control samples spread across the batch.
Pharmacokinetic parameters Cmax, AUCt, T1/2, Clearance and Bioavailability (F) were calculated by non-compartmental model using standard non-compartmental model by using Phoenix WinNonlin 6.0.4 version Software package.

Male Wistar rats [4] = assay: Object recognition task model; format: in vivo; details: rat, p.o.; for Exploration time mean ± S.E.M, Familiar object / Exploration time mean ± S.E.M, Novel object: choice trial 24 h after T1
Method: Object Recognition Task Model
(§1) Male Wistar rats (8-10 weeks old) were used as experimental animals. Four animals were housed in each cage. Animals were kept on 20% food deprivation from a day prior to experimentation. Water was provided ad libitum throughout the experiment. Animals were maintained on a 12 h light/dark cycle in temperature and humidity controlled room. The experiment was carried out in a circular or square arena made up of acrylic. Rats were habituated to individual arenas for up to 1 hour in the absence of any objects on day 1.
One group of 12 rats received vehicle and another set of animals received test compounds, before familiar (T1) and choice (T2) trials. During the familiarization phase, (T1), the rats were placed individually in the arena for 3 minutes, in which two identical objects (a1 and a2) were positioned 10 cm from the wall. 24 h after T1, trial for long-term memory test was performed. The same rats were placed in the same arena as they were placed in T1 trial. During the choice phase (T2) rats were allowed to explore the arena for 3 minutes in presence of a copy of familiar object (a3) and one novel object (b). During the T1 and T2 trial, explorations of each object (defined as sniffing, licking, chewing or having moving vibrissae whilst directing the nose towards the object at a distance of less than 1 cm) were recorded using stopwatch. • T1 is the total time spent exploring the familiar objects (a1+a2). • T2 is the total time spent exploring the familiar object and novel object (a3+b).
The object recognition test was performed as described in Behav. Brain Res., 1988, 31, 47-59.

Male Wistar rats [5] = assay: Object recognition task model (combination study with donepezil); format: in vivo; details: rat, combination of sub efficacious doses with donepezil (FIG. 1)
Method: Object Recognition Task Model (Combination Study)
The cognition enhancing properties of compounds of this invention were estimated by using this model.
as §1, with “an open field” for “a circular or square arena”, “arenas (open field)” for “arenas”, “20 minutes” for “up to 1 hour”, “1. […]” for “1.”
The same rats were placed in the same arena as they were placed in T1 trial. […] During the T1 and T2 trial, explorations of each object (defined as sniffing, licking, chewing or having moving vibrissae whilst directing the nose towards the object at a distance of less than 1 cm) were recorded using stopwatch. • T1 is the total time spent exploring the familiar objects (a1+a2). • T2 is the total time spent exploring the familiar object and novel object (a3+b). • Discriminative index=Time spent with novel object/(time spent with novel and familiar object). […]

SMILES | EC50 [1] | Kp [2] | AUC(0-t) ([3]; intravenous (bolus), 1 mg/kg) | clearance ([3]; intravenous (bolus), 1 mg/kg) | half-life ([3]; intravenous (bolus), 1 mg/kg) | bioavailability [3] | AUC(0-t) ([3]; oral (gavage), 3 mg/kg) | Cmax ([3]; oral (gavage), 3 mg/kg) | half-life ([3]; oral (gavage), 3 mg/kg) | Inference (Male Wistar rats [4]; 3 mg/kg) | Exploration time mean ± S.E.M, Familiar object (Male Wistar rats [4]; 3 mg/kg) | Exploration time mean ± S.E.M, Novel object (Male Wistar rats [4]; 3 mg/kg) | Procognitive effect in object recognition task (Male Wistar rats [5]) | Inference (Male Wistar rats [4]; 1 mg/kg) | Exploration time mean ± S.E.M, Familiar object (Male Wistar rats [4]; 1 mg/kg) | Exploration time mean ± S.E.M, Novel object (Male Wistar rats [4]; 1 mg/kg) | Inference (Male Wistar rats [4]; 0.1 mg/kg) | Exploration time mean ± S.E.M, Familiar object (Male Wistar rats [4]; 0.1 mg/kg) | Exploration time mean ± S.E.M, Novel object (Male Wistar rats [4]; 0.1 mg/kg)
Cc1cncc(-c2ccc(Cc3cc(C(=O)N[C@H]4CCCC[C@@H]4O)nn4cccc34)cc2)c1 (stereo in doubt) [Example 44, N-[(1S,2S)-2-Hydroxycyclohexyl]-4-[4-(5-methylpyridin-3-yl)-benzyl]-pyrrolo[1,2-b]pyridazine-2-carboxamide] | 96 nM | 0.17 ± 0.01 | 2290 ± 121 ng·h/mL | 7.1 ± 0.4 mL/min/kg | 1.7 ± 0.1 h | 64 ± 9% | 4430 ± 618 ng·h/mL | 1440 ± 241 ng/mL | 1.79 ± 0.37 h |  |  |  |  |  |  |  |  |  | 
O=C(N[C@H]1CCCC[C@@H]1O)c1cc(Cc2ccccc2)c2cccn2n1 [Example 4, N-[(1S,2S)-2-Hydroxycyclohexyl]-4-benzyl-pyrrolo[1,2-b]pyridazine-2-carboxamide] | 1850 nM | 1.42 ± 0.1 | 677 ± 194 ng·h/mL | 24 ± 6 mL/min/kg | 0.7 ± 0.1 h | 13 ± 1% | 259 ± 22 ng·h/mL | 113 ± 11 ng/mL | 2.5 ± 0.5 h | Active | 16.24 ± 1.09 s | 25.9 ± 2.54 s | Procognitive effects were observed |  |  |  |  |  | 
O=C(NC1CCOCC1)c1cc(Cc2ccc(Cl)cc2)c2cccn2n1 [Example 14, N-[Tetrahydropyran-4-yl]-4-(4-chlorobenzyl)-pyrrolo[1,2-b]pyridazine-2-carboxamide] | 976 nM | 3.26 ± 0.02 | 569 ± 74 ng·h/mL | 27 ± 1 mL/min/kg | 5.7 ± 0.7 h | 31 ± 6% | 532 ± 102 ng·h/mL | 68 ± 22 ng/mL | 7.9 ± 1.3 h | Active | 11.28 ± 2.18 s | 23.08 ± 2.96 s |  |  |  |  |  |  | 
Cn1cc(-c2ccc(Cc3cc(C(=O)NCC(C)(C)O)nn4cccc34)cc2)cn1 [Example 19, N-[2-hydroxy-2-methyl-propyl] 4-[4-(1-methyl-1H-pyrazol-4-yl)-benzyl]-pyrrolo[1,2-b]pyridazine-2-carboxamide] | 336 nM | 0.26 ± 0.02 | 983 ± 91 ng·h/mL | 17 ± 1.6 mL/min/kg | 0.5 h | 66 ± 18% | 1940 ± 520 ng·h/mL | 933 ± 260 ng/mL | 1 ± 0.1 h |  |  |  |  |  |  |  |  |  | 
Cn1cc(-c2ccc(Cc3cc(C(=O)NCC4(O)CCCCC4)nn4cccc34)cc2)cn1 [Example 24, N-[l-Hydroxy-cyclohexylmethyl] 4-[4-(1-methyl-1H-pyrazol-4-yl)-benzyl]-pyrrolo[1,2-b]pyridazine-2-carboxamide] | 531 nM | 0.38 | 359 ± 58 ng·h/mL | 47 ± 8 mL/min/kg | 1.6 ± 0.3 h | 5 ± 1% | 52 ± 8 ng·h/mL | 16 ± 4 ng/mL | 1.9 ± 1.1 h |  |  |  |  |  |  |  |  |  | 
CC(C)(O)CNC(=O)c1cc(Cc2ccc(-c3cccnc3)cc2)c2cccn2n1 [Example 29, N-[2-Hydroxy-2-methyl-propyl] 4-[4-(3-pyridyl)-benzyl]-pyrrolo[1,2-b]pyridazine-2-carboxamide] | 1170 nM | 0.31 ± 0.04 | 2280 ± 161 ng·h/mL | 7.2 ± 0.5 mL/min/kg | 1.5 ± 0.1 h | 88 ± 4% | 6030 ± 279 ng·h/mL | 1810 ± 327 ng/mL | 2.2 ± 0.6 h |  |  |  |  | Active | 12.17 ± 1.26 s | 22.26 ± 1.05 s |  |  | 
O=C(NC1CCOCC1)c1cc(Cc2ccc(-c3ccncc3)cc2)c2cccn2n1 [Example 31, N-[Tetrahydropyran-4-yl] 4-[4-(4-pyridyl)-benzyl]-pyrrolo[1,2-b]pyridazine-2-carboxamide] | 1550 nM | 1.41 ± 0.19 | 576 ± 192 ng·h/mL | 30.3 ± 8.9 mL/min/kg | 1.5 ± 0.4 h | 114 ± 20% | 1960 ± 360 ng·h/mL | 363 ± 40 ng/mL | 2.8 ± 0.1 h |  |  |  |  |  |  |  | Active | 14.19 ± 1.02 s | 20.18 ± 1.21 s
